Source: article PMC8482806, “A Novel Blood-Brain Barrier-Permeable Chemotherapeutic Agent for the Treatment of Glioblastoma” (Cureus, 2021)

Experiments:
[1] = target: T1, hLAT2 (Homo sapiens, UniProt Q9UHI5); assay: Substrate transport inhibition, [3H]-leucine uptake in LLC-PK1 cells expressing hLAT2; type: cell-based; conditions: [3H]-leucine, LLC-PK1 LAT2-expressing cells, 15 minutes at room temperature; read-out: IC50, inhibition of substrate transport (LAT2)
T1 construct: host or cells: LLC-PK1 (tetracycline-inducible, Invitrogen Gateway pT-REx System)
T1 sequence (Q9UHI5 1-535): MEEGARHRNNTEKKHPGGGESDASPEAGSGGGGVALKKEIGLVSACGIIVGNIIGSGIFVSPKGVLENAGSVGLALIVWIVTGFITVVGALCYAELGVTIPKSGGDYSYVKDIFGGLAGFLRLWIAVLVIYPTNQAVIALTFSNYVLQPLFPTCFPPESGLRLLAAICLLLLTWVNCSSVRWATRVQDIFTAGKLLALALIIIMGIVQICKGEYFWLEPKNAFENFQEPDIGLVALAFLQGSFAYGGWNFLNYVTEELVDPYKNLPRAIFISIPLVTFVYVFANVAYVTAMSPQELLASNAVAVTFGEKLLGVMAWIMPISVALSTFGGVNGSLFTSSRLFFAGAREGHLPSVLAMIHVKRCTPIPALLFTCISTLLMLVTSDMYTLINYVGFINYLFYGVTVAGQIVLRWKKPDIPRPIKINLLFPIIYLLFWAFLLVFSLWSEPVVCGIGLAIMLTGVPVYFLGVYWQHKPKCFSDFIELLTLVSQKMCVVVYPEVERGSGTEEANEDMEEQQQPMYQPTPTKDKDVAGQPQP
T1 sequence (P08195 1-529 partner): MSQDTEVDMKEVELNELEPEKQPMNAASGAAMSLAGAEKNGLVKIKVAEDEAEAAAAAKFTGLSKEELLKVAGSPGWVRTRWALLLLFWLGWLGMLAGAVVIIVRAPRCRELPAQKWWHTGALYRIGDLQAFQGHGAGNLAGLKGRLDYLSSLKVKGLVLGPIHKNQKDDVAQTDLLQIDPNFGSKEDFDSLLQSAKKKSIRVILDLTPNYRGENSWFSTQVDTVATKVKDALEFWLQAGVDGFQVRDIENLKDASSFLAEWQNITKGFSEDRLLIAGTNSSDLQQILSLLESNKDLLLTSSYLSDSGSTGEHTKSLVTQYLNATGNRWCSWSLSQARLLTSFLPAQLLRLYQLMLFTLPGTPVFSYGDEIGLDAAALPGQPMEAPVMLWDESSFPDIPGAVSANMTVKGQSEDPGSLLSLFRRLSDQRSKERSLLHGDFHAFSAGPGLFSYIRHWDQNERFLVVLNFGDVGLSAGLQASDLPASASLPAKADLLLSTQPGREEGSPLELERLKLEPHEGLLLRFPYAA
Protocol: Substrate transport inhibition studies were conducted with LLC-PK1 cells inducibly expressing either hLAT1 or hLAT2. Cells were plated in growth media with 1 μg/mL doxycycline at 30,000 cells/well in 96-well plates. Sixteen hours after plating, cells were treated with butyrate at a final concentration of 5 mM. The following day, cells were washed with PBS and incubated in the presence or absence of various concentrations of QBS10072S with 30,000 cpm/well of either [3H]-gabapentin (LAT1) or [3H]-leucine (LAT2) in PBS for 15 minutes at room temperature. The non-specific cell-bound activity was determined by the addition of 5 mM unlabeled gabapentin (LAT1) or leucine (LAT2). Unincorporated radioactivity was removed, and cells were washed three times with ice-cold PBS. Cells were lysed by adding scintillation fluid to each well, and cell-associated radioactivity was determined via scintillation counting using a multichannel 96-well plate reader (MicroBeta Trilux, Perkin Elmer, Waltham, MA). Data were expressed as the percent of specific radioactivity uptake in wells with no compound added. LC50s were determined by non-linear curve-fitting using GraphPad Prism (San Diego, CA).

[2] = Tolerability in non-tumor-bearing nude mice; type: in vivo, mouse; conditions: 5 or 10 mg/kg IV once a week for four weeks
Protocol: The tumor-suppressive activity of QBS10072S was evaluated in two orthotopic murine models of GBM using luciferase-expressing U251 and LN229 cell lines. Tumor volume was monitored by BLI measurement. The tolerability of QBS10072S was first tested by dosing 5 or 10 mg/kg IV once a week for four weeks into non-tumor-bearing nude mice (Figure 6). The body weights and white blood cell counts were not affected by this treatment, so QBS10072S was tested at various doses up to 10 mg/kg in the GBM models.
Figure 6 Tolerability of QBS10072S in nude mice Non-tumor-bearing nude mice were dosed IV with vehicle or QBS10072S (5 or 10 mg/kg) once a week for four weeks (arrows). Body weights were measured every three days and complete blood counts were determined once a week for seven weeks. A: Percent change in body weight over the course of the study, normalized to pre-dose weight. B: White blood cell (WBC) counts for each study arm. Horizontal bars represent the normal range of WBCs in these mice.

[3] = Maximum tolerated dose in Sprague-Dawley rats; type: in vivo, rat; conditions: highest dose 10 mg/kg IV on day zero
Protocol: Figure 7 Maximum tolerated dose in rats Sprague-Dawley rats (4 per arm) were dosed IV on day zero with vehicle or 2.5, 5, or 10 mg/kg of QBS10072S. Animals were monitored for two weeks for body weight changes (A), survival (B), and complete blood counts, including white blood cells (C), neutrophils (D), lymphocytes (E), red blood cells (F), platelets (G), and reticulocytes (H). Cell count results are expressed as cell count per μl. The normal cell count range for each type of cell is between the “max” and “min” lines, and the average value is indicated with a dotted line. Based on allometric scaling, 2.5, 5, and 10 mg/kg in rats is equivalent to 5, 10, and 20 mg/kg.

## Cc1ccc(N(CCCl)CCCl)cc1C[C@H](N)CC(=O)O [QBS10072S, (+)-(3S)-amino-4-[5-[bis(2-chloroethyl)amino]-2-methyl-phenyl]butanoic acid]
[1]
  IC50: 1100 µM
[2]
  body weights: not affected
  white blood cell counts: not affected
[3]
  maximum tolerated dose: the highest dose was greater than the maximum tolerated dose
